The results in this text go back to ChEMBL document CHEMBL3085630, “Thienopyrimidine bisphosphonate (ThPBP) inhibitors of the human farnesyl pyrophosphate synthase: optimization and characterization of the mode of inhibition” (J Med Chem, 2013).

Each structure is given as a SMILES string. The source made the active and inactive calls. The calls are words filed in the database; no cut-off is given here. Where only a bound is given, the exact number is not on record here.

In test [1] the target is T1, Farnesyl pyrophosphate synthase (Homo sapiens) (UniProt P14324).
T1 sequence (whole entry): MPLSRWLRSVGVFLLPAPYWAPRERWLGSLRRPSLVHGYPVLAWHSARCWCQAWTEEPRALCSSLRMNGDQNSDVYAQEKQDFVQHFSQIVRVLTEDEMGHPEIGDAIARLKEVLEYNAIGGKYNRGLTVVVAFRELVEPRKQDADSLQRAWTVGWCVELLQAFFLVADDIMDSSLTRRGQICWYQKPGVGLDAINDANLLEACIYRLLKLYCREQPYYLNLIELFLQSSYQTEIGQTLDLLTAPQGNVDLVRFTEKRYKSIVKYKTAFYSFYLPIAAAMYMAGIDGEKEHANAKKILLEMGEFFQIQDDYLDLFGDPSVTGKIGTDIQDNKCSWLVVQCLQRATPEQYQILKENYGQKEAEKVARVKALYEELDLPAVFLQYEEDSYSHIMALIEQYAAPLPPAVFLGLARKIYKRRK
Put plainly: Inhibition of human recombinant FPPS using GPP/[3H]IPP as substrate at 100 nM incubated for 10 mins prior to substrate addition measured after 8 mins by scintillation counting analysis.

The next test deals with Hydroxyapatite. Nature of the test: Binding affinity to bone mineral hydroxyapatite at 50 uM after 5 mins by NMR-spectroscopic analysis.
Test [2] concerns the target T2, Farnesyl pyrophosphate synthase (Homo sapiens, UniProt P14324).
T2 sequence (P14324 whole entry): T1 sequence (whole entry)
Put plainly: Inhibition of human recombinant FPPS using GPP/[3H]IPP as substrate incubated for 10 mins prior to substrate addition by scintillation counting analysis.

For test [3], the target named is T2, Farnesyl pyrophosphate synthase. Nature of the test: Inhibition of human recombinant FPPS using GPP/[3H]IPP as substrate incubated for 10 mins prior to substrate addition measured after 8 mins by scintillation counting analysis.

One may read the inhibition as the share of the control response that was lost under treatment. For the compound `O=P(O)(O)C(Nc1ncnc2sc(-c3ccc(C(F)(F)F)cc3)cc12)P(=O)(O)O`, the inhibition in test [1] was determined as 73%. Also, the outcome with Hydroxyapatite was Active.
As to `O=P(O)(O)C(Nc1ncnc2sc(-c3ccc4[nH]ncc4c3)cc12)P(=O)(O)O`, the inhibition in test [1] was less than 20%.
The term IC50 denotes the midpoint of a concentration-inhibition curve. For `COc1ccc(-c2cc3c(NC(P(=O)(O)O)P(=O)(O)O)ncnc3s2)cc1`, in test [2], the IC50 was found to be 440 nM.
Regarding `O=P(O)(O)C(O)(Cc1cccnc1)P(=O)(O)O`, the outcome in the test on Hydroxyapatite was Active.
Consider `O=P(O)(O)C(Nc1ncnc2sc(-c3cccc(C(F)(F)F)c3)cc12)P(=O)(O)O`, for which, in test [1], the inhibition stood at 30%.
Still for that read-out and setting: with `Cc1noc(C)c1-c1cc2c(NC(P(=O)(O)O)P(=O)(O)O)ncnc2s1` the figure was less than 20%.
Regarding `CC(C)Oc1ccc(-c2cc3c(NC(P(=O)(O)O)P(=O)(O)O)ncnc3s2)cc1`, the IC50 in test [3] is 200 nM.
Turning to `O=P(O)(O)C(Nc1ncnc2sc(-c3ccc(C4CC4(F)F)cc3)cc12)P(=O)(O)O` (centres undefined), the IC50 in test [2] stood at 140 nM.
Regarding `O=P(O)(O)C(Nc1ncnc2sc(-c3ccc(C4CC4)cc3)cc12)P(=O)(O)O`, the IC50 was 115 nM in test [2] and 39 nM in test [3]. In the test on Hydroxyapatite, the outcome was Active.
As to `O=P(O)(O)C(Nc1ncnc2sc(-c3cccc4[nH]ncc34)cc12)P(=O)(O)O`, in test [1], the inhibition is less than 20%.
Regarding `O=P(O)(O)C(Nc1ncnc2sc(-c3ccc(OC4CC4)cc3)cc12)P(=O)(O)O`, in the test on Hydroxyapatite, the result was Active.
